Measured values published in patent US20220389058A1, “PEPTIDES AND COMPOSITIONS FOR USE IN COSMETICS AND MEDICINE” (LIPOTRUE, S.L., priority 2019, published 2022).

How the values were obtained:
[1] = tested on: emilin-1; assay: Emilin-1 protein expression, immunofluorescence in HDLMVEC (Example 18); type: cell-based, Human
Method: HDLMVEC were cultured on coverslips in Microvascular Endothelial Cell Growth (MECG) Medium at a density of 16.000 cell/cm^2 and 37° C. in a humidified atmosphere with 5% CO2. When cell confluence was around 70-80%, cells were treated with 0.05 mg/mL Ac-SEQ ID NO:1-NH2 in MECG medium for 24 hours. Then, cells were washed twice with PBS, fixed with 4% formaldehyde and permeabilized with Triton 0.2%. Next, samples were blocked for 1 hour with PBS/BSA 5%, in order to avoid nonspecific antibody binding. Emilin-1 was stained with 1:50 Emilin-1 antibody in PBS/BSA 1%, during 1.5 hours at room temperature. After proper washing with PBS, actin was stained with 50 μg/mL Phalloidin during 1 hour at room temperature. Then, cells were washed with PBS and incubated with 5 μg/mL of the secondary antibody Goat anti-Rabbit IgG for 1 hour at room temperature. Finally, coverslips were mounted using Vectashield with DAPI, that stains nuclei, and samples were kept protected from light at 4° C. until microscopic images were acquired. […]
Images were analyzed using Image J software. Shortly, threshold was adjusted to select emilin-1 staining and mean fluorescent was measured. The number of cells was counted using the DAPI staining. […]
Statistical data analysis was performed using Student t-test by comparison of fluorescence from treated cells vs non-treated cells, *, p<0.05; **, p<0.01 and ***, p<0.001.

[2] = tested on: integrin α9β1 (Itg9); assay: Integrin α9β1 protein expression, immunofluorescence in HDLMVEC (Example 19); type: cell-based, Human
Method: HDLMVEC were cultured on coverslips in Microvascular Endothelial Cell Growth (MECG) Medium at a density of 16.000 cell/cm^2 and 37° C. in a humidified atmosphere with 5% CO2.
When cell confluence was around 70-80%, cells were treated with 0.05 mg/mL Ac-SEQ ID NO:1-NH2 in MECG medium for 24 hours. Then, cells were washed twice with PBS, fixed with 4% formaldehyde and permeabilized with Triton 0.2%. Next, samples were blocked for 1 hour with PBS/BSA 5%, in order to avoid nonspecific antibody binding.
Itg9 was stained with 1:50 anti-Itg9 antibody in PBS/BSA 1%, during 1.5 hours at room temperature. After proper washing with PBS, actin was stained with 50 μg/mL Phalloidin during 1 hour at room temperature. Then, cells were washed with PBS and incubated with 5 μg/mL of the secondary antibody Goat anti-Rabbit IgG for 1 hour at room temperature. Finally, coverslips were mounted using Vectashield with DAPI, that stains nuclei, and samples were kept protected from light at 4° C. until microscopic images were acquired.
Microscopic images were acquired using 10×objective. […]
Images were analyzed using Image J software. Shortly, threshold was adjusted to select Itg9 staining and mean fluorescent was measured. The number of cells was counted using the DAPI staining. […]

[3] = tested on: Human Epidermal Keratinocytes (HEKa); assay: Innate antimicrobial immunity related genes, RT-qPCR in HEKa (Example 20); type: cell-based; settings: 0.01 mg/mL, 6 h
[4] = 0.05 mg/mL, 24 hours, basal = 100.00

**Q.** With “Ac-Arg-Arg-Gln-Met-Arg-Glu-NH2 (Ac-RRQMRE-NH2) [Ac-SEQ ID NO: 1-NH2]” as the substance, how does the “% Mean of emilin-1 compared to untreated cells” value [1, 4] read?
**A.** The value was 170.88%.

**Q.** What about the “increase of the expression of emilin-1 when compared with untreated cells” value ([1]; 24 h of treatment) of the same substance?
**A.** Its value is “more than 70%”.

**Q.** What about the “% Mean of integrin α9β1 (Itg9) compared to untreated cells” value [2, 4] of the same substance?
**A.** The value was 153.56%.

**Q.** And the “increase of the expression of Itg9 when compared with the untreated cells” value ([2]; 24 hours of treatment)?
**A.** The value was greater than 50%.

**Q.** And the “DEFB1 Fold change vs. Basal” value [3]?
**A.** Its value is 1.31 Fold change.

**Q.** What about the “DEFB4A Fold change vs. Basal” value [3] of the same substance?
**A.** The value was 1.58 Fold change.

**Q.** And the “IRF1 Fold change vs. Basal” value [3]?
**A.** Its value is 1.25 Fold change.

**Q.** And the “IRF3 Fold change vs. Basal” value [3]?
**A.** Its value is 1.54 Fold change.

**Q.** And the “ISG15 Fold change vs. Basal” value [3]?
**A.** The value was 1.38 Fold change.

**Q.** What about the “MX1 Fold change vs. Basal” value [3] of the same substance?
**A.** Its value is 1.93 Fold change.

**Q.** What about the “OAS2 Fold change vs. Basal” value [3] of the same substance?
**A.** The value was 1.39 Fold change.

**Q.** And the “S100A7 Fold change vs. Basal” value [3]?
**A.** The value was 2.04 Fold change.
